Each block holds one molecule with its values, some of them ahead of it. The source made the active and inactive calls.
Columns and labels:
[1] = molecular target: Troponin, cardiac muscle (Homo sapiens, UniProt P19429+P45379+P63316); assay: Fluorescence-based biochemical high throughput dose response assay for activators of the calcium sensitivity of cardiac Regulated Thin Filaments (RTF). [Related pubchem assays (depositor defined):AID493008, AID493018, AID504382, AID504383]; type: protein-complex assay
[2] = molecular target: T1, High affinity choline transporter 1 (Homo sapiens, UniProt Q9GZV3); assay: CHT inhibitors, dose response, cell-based, 5-point CRC, membrane potential dye (AID 504840); type: functional
T1 sequence (Q9GZV3 whole entry): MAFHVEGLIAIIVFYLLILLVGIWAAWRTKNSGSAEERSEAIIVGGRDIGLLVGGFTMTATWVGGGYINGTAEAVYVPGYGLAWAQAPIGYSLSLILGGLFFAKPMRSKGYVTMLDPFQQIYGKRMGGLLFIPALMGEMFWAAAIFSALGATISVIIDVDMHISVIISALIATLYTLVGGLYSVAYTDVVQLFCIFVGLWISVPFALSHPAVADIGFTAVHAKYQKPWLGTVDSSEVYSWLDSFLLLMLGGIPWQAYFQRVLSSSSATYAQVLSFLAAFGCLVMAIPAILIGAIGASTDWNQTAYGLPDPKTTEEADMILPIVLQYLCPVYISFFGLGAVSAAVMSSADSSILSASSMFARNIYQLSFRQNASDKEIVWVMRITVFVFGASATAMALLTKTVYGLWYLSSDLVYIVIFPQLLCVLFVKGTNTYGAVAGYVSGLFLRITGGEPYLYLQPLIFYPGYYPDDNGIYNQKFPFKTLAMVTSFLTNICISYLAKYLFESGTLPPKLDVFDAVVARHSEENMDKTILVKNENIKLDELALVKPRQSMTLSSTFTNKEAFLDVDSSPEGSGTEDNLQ

[3] = molecular target: T2, Short transient receptor potential channel 4 (Mus musculus, UniProt Q9QUQ5); assay: mouse TRPC4 channel activators, dose response, cell-based, HEK293 TRPC4/mu-opioid, Fluo-4 calcium (AID 434937); type: functional
T2 sequence (Q9QUQ5 whole entry): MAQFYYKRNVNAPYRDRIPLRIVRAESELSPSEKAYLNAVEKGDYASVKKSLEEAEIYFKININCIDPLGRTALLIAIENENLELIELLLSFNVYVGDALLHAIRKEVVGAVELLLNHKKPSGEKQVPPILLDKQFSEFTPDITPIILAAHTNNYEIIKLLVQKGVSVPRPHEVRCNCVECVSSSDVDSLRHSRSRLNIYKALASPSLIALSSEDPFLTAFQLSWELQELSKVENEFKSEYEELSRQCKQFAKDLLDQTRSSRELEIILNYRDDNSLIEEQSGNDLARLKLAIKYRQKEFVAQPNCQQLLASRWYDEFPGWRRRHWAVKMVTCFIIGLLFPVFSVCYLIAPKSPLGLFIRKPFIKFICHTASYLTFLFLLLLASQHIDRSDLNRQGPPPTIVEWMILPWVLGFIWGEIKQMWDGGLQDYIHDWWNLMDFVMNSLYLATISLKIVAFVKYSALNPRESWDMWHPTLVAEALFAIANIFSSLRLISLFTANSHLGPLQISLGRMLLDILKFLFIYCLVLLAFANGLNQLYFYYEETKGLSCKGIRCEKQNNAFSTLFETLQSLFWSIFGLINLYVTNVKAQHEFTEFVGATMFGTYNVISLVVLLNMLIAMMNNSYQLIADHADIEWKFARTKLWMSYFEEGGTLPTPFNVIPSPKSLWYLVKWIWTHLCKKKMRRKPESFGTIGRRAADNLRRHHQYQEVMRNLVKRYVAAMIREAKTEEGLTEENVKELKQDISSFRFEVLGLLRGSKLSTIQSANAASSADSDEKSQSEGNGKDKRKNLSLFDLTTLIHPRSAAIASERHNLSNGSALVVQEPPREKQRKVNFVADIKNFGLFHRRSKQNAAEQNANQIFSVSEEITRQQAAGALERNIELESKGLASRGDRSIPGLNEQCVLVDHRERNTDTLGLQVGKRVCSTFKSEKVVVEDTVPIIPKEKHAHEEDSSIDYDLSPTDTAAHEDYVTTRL

[4] = molecular target: T1, High affinity choline transporter 1; assay: CHT inhibitors, dose response, cell-based, 10-point CRC, membrane potential dye (AID 588401); type: functional;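 also: membrane potential dye fluorescence of choline-evoked depolarization via CHT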
[5] = test system: T-cell; assay: inhibitors of CD8+ T cell–vesicle binding, dose response, mouse 2C CD8+ T cells, flow cytometry (AID 485284); type: functional
[6] = molecular target: T3, Coagulation factor XII (Homo sapiens, UniProt P00748); assay: Factor XIIa Dose Response Confirmation from Single Well HTS. [Related pubchem assays (depositor defined):AID701]; type: functional
T3 sequence (P00748 whole entry): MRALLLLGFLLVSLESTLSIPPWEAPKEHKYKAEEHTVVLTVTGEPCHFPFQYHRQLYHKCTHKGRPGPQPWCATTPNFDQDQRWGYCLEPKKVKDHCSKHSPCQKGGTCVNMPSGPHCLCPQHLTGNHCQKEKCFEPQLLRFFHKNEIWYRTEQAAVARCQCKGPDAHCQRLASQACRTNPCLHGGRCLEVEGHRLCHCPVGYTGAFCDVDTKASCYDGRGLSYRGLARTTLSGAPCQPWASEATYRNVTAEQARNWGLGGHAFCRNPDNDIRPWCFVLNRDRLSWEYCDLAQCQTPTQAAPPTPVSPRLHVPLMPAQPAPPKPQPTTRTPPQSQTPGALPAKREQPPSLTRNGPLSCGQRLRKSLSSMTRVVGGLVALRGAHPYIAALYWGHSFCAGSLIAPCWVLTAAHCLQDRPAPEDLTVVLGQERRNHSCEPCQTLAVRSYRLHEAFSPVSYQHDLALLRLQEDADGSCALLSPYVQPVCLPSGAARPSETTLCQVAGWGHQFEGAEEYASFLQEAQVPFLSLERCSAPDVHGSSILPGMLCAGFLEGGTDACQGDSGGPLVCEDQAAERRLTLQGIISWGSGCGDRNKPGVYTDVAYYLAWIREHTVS

[7] = test system: HEK293; assay: NOD1 signaling inhibitors, primary screen, cell-based, luminescence, uHTS (AID 1578); type: functional; conditions: Homo sapiens
[8] = molecular target: T4, Nucleotide-binding oligomerization domain-containing protein 2 (Homo sapiens, UniProt Q9HC29); assay: PubChem AID 2334; type: functional
[9] = test system: HEK293; assay: cells; conditions: Homo sapiens
[10] = test system: HEK293; assay: cells; type: functional, cell-based; conditions: Homo sapiens
[11] = molecular target: Nucleotide-binding oligomerization domain-containing protein 1 (Homo sapiens, UniProt Q9Y239); assay: NOD1 signaling inhibitors, SAR follow-up, revised (AID 2333); type: functional
[12] = test system: HEK293; assay: NOD2 signaling inhibitors in MDP-stimulated cells, cell-based, uHTS, luminescence (AID 2001); type: functional; conditions: Homo sapiens
[13] = test system: HEK293; assay: cells; type: functional, cell-based; conditions: Homo sapiens; remark: listed apart in the source
[14] = test system: HEK293; assay: cells; type: functional, cell-based; conditions: Homo sapiens; remark: listed apart in the source
[15] = molecular target: T4, Nucleotide-binding oligomerization domain-containing protein 2; assay: NOD2 signaling inhibitors, cell-based, luminescence, uHTS, HEK293 (AID 1566); type: functional
[16] = molecular target: Tumor necrosis factor (Homo sapiens, UniProt P01375); assay: TNFa-triggered NF-kB activation inhibitors, SAR follow-up, cell-based, revised (AID 2337); type: functional
[17] = molecular target: Sphingosine 1-phosphate receptor 4 (Homo sapiens, UniProt O95977); assay: Late-stage fluorescence dose response cell-based assay to identify agonists of the Sphingosine 1-Phosphate Receptor 4 (S1P4): purchased compounds EC50. [Related pubchem assays (depositor defined):AID1509, AID1523, AID1563, AID1686, AID1701, AID1801]; type: functional

Compound: CC(=O)OCC[N+](C)(C)C [ACETYLCHOLINE CHLORIDE]
EC50 [1]: > 71.4 µM (inactive)
IC50 [2]: 6.26 µM (active)
EC50 [3]: 0.421 µM (active)
IC50 [4]: 0.566 µM (active)

Compound: CCC(C(=O)Nc1ccccc1)c1ccccc1 (configuration not stated)
EC50 [5]: 0.0882 µM (active)

IC50 [6]: > 50 µM (inactive)
Compound: CC1(C)c2ssc(=S)c2-c2ccccc2N1C(=O)c1ccco1

Compound: Cc1cc(Cl)ccc1OCC(=O)Nc1ccccc1NS(=O)(=O)c1cccs1
EC50 [7]: 5.15 µM (active)
IC50 [8]: 8.21 µM (active)
IC50 [9]: > 20 µM (inactive)
IC50 [10]: > 20 µM (inactive)
IC50 [11]: 4.55 µM (active)
IC50 [12]: 15.8 µM (inactive)
IC50 [13]: > 20 µM (inactive)
IC50 [14]: > 20 µM (inactive)
EC50 [15]: 6.8 µM (active)
IC50 [16]: 12.3 µM (active)

EC50 [17]: > 50 µM (inactive)
Compound: Cc1nn(Cc2ccccc2)c(Cl)c1C(=O)OC(C)C(=O)Nc1nc(-c2ccccc2)cs1 (configuration not stated)
